Results: PubChem BioAssay AID248 (DTP/NCI, 2004)
Where “and” joins values, the source holds several entries; their conditions need not be identical. Equal entries are not always repeated. Inconclusive results and toxic doses are left out.

Tested on: L1210 leukemia ip in BDF1 mice, survival T/C
Experiment: NCI In Vivo Anticancer Drug Screen. Data for tumor model L1210 Leukemia (intraperitoneal) in B6D2F1 (BDF1) mice
Settings: endpoint: mean survival time, higher = longer survival
Procedure, shortened: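 Mice bearing the transplanted tumor received compound or vehicle. Survival of the treated group was divided by that of the vehicle-treated control group to give the ratio.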

[1] = dose: 50.0 mg/kg/injection, schedule: Q01DX009 (ip), vehicle: saline with Tween-80
[2] = dose: 100.0 mg/kg/injection, schedule: Q01DX001 (ip), vehicle: saline with Tween-80
[3] = dose: 100.0 mg/kg/injection, schedule: Q01DX009 (ip), vehicle: saline with Tween-80
[4] = dose: 200.0 mg/kg/injection, schedule: Q01DX009 (ip), vehicle: saline with Tween-80
[5] = dose: 100.0 mg/kg/injection, schedule: Q04DX003 (ip), vehicle: Klucel (hydroxypropylcellulose) (HPC)
[6] = dose: 200.0 mg/kg/injection, schedule: Q04DX003 (ip), vehicle: Klucel (hydroxypropylcellulose) (HPC)
[7] = dose: 400.0 mg/kg/injection, schedule: Q04DX003 (ip), vehicle: Klucel (hydroxypropylcellulose) (HPC)
[8] = dose: 100.0 mg/kg/injection, schedule: Q04DX003 (ip), vehicle: saline with Tween-80
[9] = dose: 200.0 mg/kg/injection, schedule: Q04DX003 (ip), vehicle: saline with Tween-80
[10] = dose: 400.0 mg/kg/injection, schedule: Q04DX003 (ip), vehicle: saline with Tween-80
[11] = dose: 100.0 mg/kg/injection, schedule: Q01DX009 (ip), vehicle: Klucel (hydroxypropylcellulose) (HPC)
[12] = dose: 200.0 mg/kg/injection, schedule: Q01DX009 (ip), vehicle: Klucel (hydroxypropylcellulose) (HPC)
[13] = dose: 400.0 mg/kg/injection, schedule: Q01DX009 (ip), vehicle: Klucel (hydroxypropylcellulose) (HPC)
[14] = dose: 100.0 mg/kg/injection, schedule: Q04DX002 (ip), vehicle: Klucel (hydroxypropylcellulose) (HPC)

With `C=CCN(C)/N=N/c1[nH]ncc1C(N)=O` the T/C (dose: 14.5 mg/kg/injection, schedule: Q01DX009 (ip), vehicle: saline with Tween-80) was 116 % of control, the T/C (dose: 44.0 mg/kg/injection, schedule: Q04DX003 (ip), vehicle: saline with Tween-80) was 114 % of control and the T/C [1] was 157 % of control. The T/C (dose: 50.0 mg/kg/injection, schedule: Q04DX003 (ip), vehicle: saline with Tween-80) was 119 % of control, the T/C (dose: 67.0 mg/kg/injection, schedule: Q04DX003 (ip), vehicle: saline with Tween-80) was 114 % of control and the T/C [2] was 109 % of control. For the same compound, the T/C [3] was 154 % of control and the T/C [4] was 88 % of control.
In the case of `NC(=O)c1cc(I)cc(I)c1N`, the T/C [2] is reported as 95 % of control, the T/C (dose: 200.0 mg/kg/injection, schedule: Q01DX001 (ip), vehicle: saline with Tween-80) is reported as 97 % of control and the T/C (dose: 400.0 mg/kg/injection, schedule: Q01DX001 (ip), vehicle: saline with Tween-80) is reported as 98 % of control.
In the case of `c1ccc(-c2cc(-c3ccccc3)c3c([o+]2)CCCCCCCCCCCC3)cc1`, the T/C [1] is reported as 108 % of control, the T/C [3] is reported as 108 % of control and the T/C [4] is reported as 97 % of control.
For `CC12CCC(=O)C=C1CCC1C2CCC2(C)C(OC(=O)CN3CC3)CCC12` (stereo not given), the T/C (dose: 100.0 mg/kg/injection, schedule: Q01DX001 (sc), vehicle: steriod suspending solution) was 101 % of control, the T/C (dose: 200.0 mg/kg/injection, schedule: Q01DX001 (sc), vehicle: steriod suspending solution) was 97 % of control and the T/C (dose: 400.0 mg/kg/injection, schedule: Q01DX001 (sc), vehicle: steriod suspending solution) was 103 % of control.
In the case of `CN(C)c1ccc(C2SCSCS2)cc1`, the T/C [5] is reported as 97 % of control, the T/C [6] is reported as 101 % of control and the T/C [7] is reported as 95 % of control.
With `OCCSc1ncnc2nc[nH]c12` the T/C [8] was 104 % of control, the T/C [9] was 98 % of control and the T/C [10] was 104 % of control.
With `O=C1CSC(c2ccccc2)N1` (stereo not given) the T/C (dose: 44.0 mg/kg/injection, schedule: Q04DX003 (ip), vehicle: Klucel (hydroxypropylcellulose) (HPC)) was 94 % of control and 103 % of control, the T/C (dose: 67.0 mg/kg/injection, schedule: Q04DX003 (ip), vehicle: Klucel (hydroxypropylcellulose) (HPC)) was 98 % of control and 100 % of control and the T/C [11] was 98 % of control. For the same compound, the T/C [5] was 98 % of control and 100 % of control, the T/C (dose: 150.0 mg/kg/injection, schedule: Q04DX003 (ip), vehicle: Klucel (hydroxypropylcellulose) (HPC)) was 98 % of control and 109 % of control and the T/C [12] was 98 % of control. For the same compound, the T/C [6] was 100 % of control, the T/C [13] was 95 % of control and the T/C [7] was 105 % of control.
In the case of `Cc1ccc(Cl)c(P(=O)(O)O)c1`, the T/C [8] is reported as 97 % of control, the T/C [9] is reported as 106 % of control and the T/C [10] is reported as 104 % of control.
In the case of `CCCCCCCCC(O)CCCCCCCCC(=O)O` (stereo not given), the T/C [3] is reported as 101 % of control, the T/C [4] is reported as 97 % of control and the T/C (dose: 400.0 mg/kg/injection, schedule: Q01DX009 (ip), vehicle: saline with Tween-80) is reported as 86 % of control.
In the case of `O=C(Nc1ccc([N+](=O)[O-])cc1Cl)Oc1ccc(Br)cc1Br`, the T/C [8] is reported as 100 % of control, the T/C [9] is reported as 95 % of control and the T/C [10] is reported as 100 % of control.
`CCC(C)C(NC(=O)C1CSC(C)(C)N1C=O)C(=O)OC1CCCCC1` (stereo not given) was tested, and the T/C [8] was 98 % of control, the T/C [9] was 97 % of control and the T/C [10] was 101 % of control.
With `CCOc1ccc(OCC)cc1` the T/C [8] was 101 % of control, the T/C [9] was 101 % of control and the T/C [10] was 94 % of control.
With `CC(C)SCC(NC(=O)/C=C/c1ccccc1)C(=O)O` (stereo not given) the T/C (dose: 50.0 mg/kg/injection, schedule: Q04DX003 (ip), vehicle: other) was 97 % of control, the T/C (dose: 100.0 mg/kg/injection, schedule: Q04DX003 (ip), vehicle: other) was 101 % of control and the T/C (dose: 200.0 mg/kg/injection, schedule: Q04DX003 (ip), vehicle: other) was 95 % of control.
In the case of `COC(=O)c1c[nH]c2ccccc2c1=O`, the T/C [11] is reported as 106 % of control, the T/C [5] is reported as 96 % of control and the T/C [12] is reported as 95 % of control. For the same compound, the T/C [6] was 107 % of control, the T/C [13] was 108 % of control and the T/C [7] was 91 % of control.
In the case of `CC12CCCCC1C(C(C)(C)OC(=O)c1ccc([N+](=O)[O-])cc1)CC2` (stereo not given), the T/C (dose: 25.0 mg/kg/injection, schedule: Q04DX002 (ip), vehicle: Klucel (hydroxypropylcellulose) (HPC)) is reported as 105 % of control, the T/C (dose: 50.0 mg/kg/injection, schedule: Q04DX002 (ip), vehicle: Klucel (hydroxypropylcellulose) (HPC)) is reported as 99 % of control and the T/C [14] is reported as 89 % of control.
In the case of `CC1OC(OC2CCC3(C=O)C4CCC5(C)C(C6=CC(=O)OC6)CCC5(O)C4CCC3(O)C2)C(O)C(O)C1O` (stereo not given), the T/C (dose: 3.0 mg/kg/injection, schedule: Q01DX001 (ip), vehicle: carboxymethylcellulose (CMC)) is reported as 96 % of control and the T/C (dose: 6.0 mg/kg/injection, schedule: Q01DX001 (ip), vehicle: carboxymethylcellulose (CMC)) is reported as 98 % of control.
In the case of `CC(Oc1ccc(Br)cc1Br)C(=O)O` (stereo not given), the T/C [8] is reported as 93 % of control, the T/C [9] is reported as 93 % of control and the T/C [10] is reported as 95 % of control.
In the case of `C/C(=C/c1ccc([N+](=O)[O-])cc1)C(=O)O`, the T/C [11] is reported as 96 % of control, the T/C [12] is reported as 115 % of control and the T/C [13] is reported as 107 % of control.
`O=C(/C=C/c1ccc2c(c1)OCO2)c1ccc([N+](=O)[O-])cc1` was tested, and the T/C (dose: 100.0 mg/kg/injection, schedule: Q04DX003 (ip), vehicle: alcohol) was 93 % of control, the T/C (dose: 200.0 mg/kg/injection, schedule: Q04DX003 (ip), vehicle: alcohol) was 90 % of control and the T/C (dose: 400.0 mg/kg/injection, schedule: Q04DX003 (ip), vehicle: alcohol) was 93 % of control.
For `Cc1nc(N)nc(Nc2ccc(CCO)cc2)c1Br`, the T/C (dose: 100.0 mg/kg/injection, schedule: Q01DX Z (ip), vehicle: methylcellulose (MC)) was 103 % of control and the T/C (dose: 200.0 mg/kg/injection, schedule: Q01DX Z (ip), vehicle: methylcellulose (MC)) was 98 % of control.
For `Cc1ccc(CN(C)N=Nc2ccccc2)cc1`, the T/C [14] was 91 % of control and the T/C (dose: 200.0 mg/kg/injection, schedule: Q04DX002 (ip), vehicle: Klucel (hydroxypropylcellulose) (HPC)) was 102 % of control.
In the case of `CCCCCCCCCCCCCCCCOc1ccc(Cl)cc1`, the T/C (dose: 100.0 mg/kg/injection, schedule: Q01DX001 (ip), vehicle: Klucel (hydroxypropylcellulose) (HPC)) is reported as 95 % of control, the T/C [5] is reported as 97 % of control and the T/C [6] is reported as 87 % of control. For the same compound, the T/C (dose: 400.0 mg/kg/injection, schedule: Q01DX001 (ip), vehicle: Klucel (hydroxypropylcellulose) (HPC)) was 92 % of control and the T/C [7] was 93 % of control.
For `CN=C(c1ccc(NC(=O)c2ccc(C(=O)Nc3ccc(C(=NC)N4CCOCC4)cc3)c(Cl)c2)cc1)N1CCOCC1`, the T/C (dose: 0.94 mg/kg/injection, schedule: Q01DX Z (ip), vehicle: carboxymethylcellulose (CMC)) was 104 % of control, the T/C (dose: 1.87 mg/kg/injection, schedule: Q01DX Z (ip), vehicle: carboxymethylcellulose (CMC)) was 101 % of control and the T/C (dose: 3.75 mg/kg/injection, schedule: Q01DX Z (ip), vehicle: carboxymethylcellulose (CMC)) was 98 % of control. For the same compound, the T/C (dose: 7.5 mg/kg/injection, schedule: Q01DX Z (ip), vehicle: carboxymethylcellulose (CMC)) was 87 % of control, the T/C (dose: 15.0 mg/kg/injection, schedule: Q01DX Z (ip), vehicle: carboxymethylcellulose (CMC)) was 91 % of control and the T/C (dose: 30.0 mg/kg/injection, schedule: Q01DX Z (ip), vehicle: carboxymethylcellulose (CMC)) was 91 % of control. For the same compound, the T/C (dose: 60.0 mg/kg/injection, schedule: Q01DX Z (ip), vehicle: carboxymethylcellulose (CMC)) was 91 % of control.
In the case of `CNc1ccc(S(=O)(=O)c2ccc(NC)c([N+](=O)[O-])c2)cc1[N+](=O)[O-]`, the T/C (dose: 100.0 mg/kg/injection, schedule: Q01DX005 (ip), vehicle: gum acacia) is reported as 93 % of control, the T/C (dose: 100.0 mg/kg/injection, schedule: Q01DX009 (ip), vehicle: gum acacia) is reported as 94 % of control and the T/C (dose: 200.0 mg/kg/injection, schedule: Q01DX005 (ip), vehicle: gum acacia) is reported as 93 % of control. The T/C (dose: 200.0 mg/kg/injection, schedule: Q01DX009 (ip), vehicle: gum acacia) was 87 % of control, the T/C (dose: 400.0 mg/kg/injection, schedule: Q01DX005 (ip), vehicle: gum acacia) was 96 % of control and the T/C (dose: 400.0 mg/kg/injection, schedule: Q01DX009 (ip), vehicle: gum acacia) was 90 % of control.
With `CC(=O)Nc1ncn[nH]1` the T/C (dose: 50.0 mg/kg/injection, schedule: Q01DX001 (ip), vehicle: saline) was 98 % of control, the T/C (dose: 100.0 mg/kg/injection, schedule: Q01DX001 (ip), vehicle: saline) was 98 % of control and the T/C (dose: 200.0 mg/kg/injection, schedule: Q01DX001 (ip), vehicle: saline) was 101 % of control. The T/C (dose: 400.0 mg/kg/injection, schedule: Q01DX001 (ip), vehicle: saline) was 101 % of control.
`O=[N+]([O-])c1ccc2c(c1)c(-c1cc(Cl)cc(Cl)c1)nc1ccccc12` was tested, and the T/C [1] was 104 % of control, the T/C [3] was 103 % of control and the T/C [8] was 93 % of control. For the same compound, the T/C [4] was 106 % of control, the T/C [9] was 90 % of control and the T/C [10] was 93 % of control.
In the case of `CC(C)N(CCC#N)C(=S)Nc1cccc2ccccc12`, the T/C [11] is reported as 93 % of control, the T/C [12] is reported as 87 % of control and the T/C [13] is reported as 102 % of control.
